Measurements from patent US20230363382A1, “COMBINATIONS OF TRIAZINONE HERBICIDES WITH SAFENERS” (priority 2020, published 2023).
Where two headings read alike, the source gives them in different places.

How the values were obtained:
Settings in all cases: Metribuzin 840 g ai/ha alone, soil spray
[1] = system: Soybean crop
Protocol: (§1) Experiments were carried out to evaluate the phytotoxicity, effect on plant height and effect on number of plants standing after treatments with combinations of one or more triazinone herbicides with one or more safeners.
(§2) Application method was spray and applications were made to soil.

[2] = system: Soybean crop; assay: effect on plant height of Soybean crop; type: in vivo
Protocol: as §1, §2

[3] = system: Soybean plants; assay: effect on number of standing Soybean plants; type: in vivo
Protocol: as §1, §2

[4] = system: Ipomoea hederacea; assay: % weed control in Soybean crop; type: in vivo
Protocol: as §1, §2

Which results are given for `CSc1nnc(C(C)(C)C)c(=O)n1N` [Metribuzin, 4-amino-6-tert-butyl-4,5-dihydro-3-methylthio-1,2,4-triazin-5-one]?
% Phytotoxicity 7 DAA ([1]; Table 1 treatment set): 6.3%; % Phytotoxicity 7 DAA ([1]; Table 2 treatment set): 7.5%; % Phytotoxicity 21 DAA ([1]; Table 1 treatment set): 65.0%; % Phytotoxicity 21 DAA ([1]; Table 2 treatment set): 62.5%; % Phytotoxicity 35 DAA ([1]; 35 DAA, Table 1 treatment set): 81.3%; Plant height 28 DAA ([2]; Table 1 treatment set): 5.80; Plant height 28 DAA ([2]; Table 2 treatment set): 7.05; Number of plants standing 28 DAA ([3]; Table 1 treatment set): 3.0; Number of plants standing 28 DAA ([3]; Table 2 treatment set): 3.8; % Weed Control 7 DAA ([4]; Table 1 treatment set): 60.0%; % Weed Control 7 DAA ([4]; Table 2 treatment set): 72.5%; % Weed Control 14 DAA ([4]; Table 1 treatment set): 92.5%; % Weed Control 14 DAA ([4]; Table 2 treatment set): 96.3%; % Weed Control 21 DAA ([4]; Table 1 treatment set): 98.8%; % Weed Control 21 DAA ([4]; Table 2 treatment set): 96.8%; % Weed Control 28 DAA ([4]; Table 1 treatment set): 95.0%; % Weed Control 28 DAA ([4]; Table 2 treatment set): 98.8%; % Weed Control 35 DAA ([4]; Table 1 treatment set): 96.3%; % Weed Control 35 DAA ([4]; Table 2 treatment set): 98.8%
